Calls of active or inactive are those of the source. The rule behind the calls is not given here.
Experiments:
IGROV-1 [1] = test: Cytotoxicity against human IGROV1 cells after 72 hrs; format: functional, cell-based; settings: IGROV-1, 72 h
NCI-H460 [2] = test: Cytotoxicity against human H460 cells after 1 hr; format: functional, cell-based; settings: NCI-H460, 1 h
NCI-H460 [3] = test: Cytotoxicity against human H460 cells after 72 hrs; format: functional, cell-based; settings: NCI-H460, 72 h
Homo sapiens = organism: Homo sapiens; test: Stimulation of human recombinant topoisomerase 1B-mediated SV40 DNA cleavage
HT-29 [4] = test: Cytotoxicity against human HT29 cells after 1 hr; format: functional, cell-based; settings: HT-29, 1 h
IGROV-1 [5] = test: Cytotoxicity against human IGROV1 cells after 1 hr; format: functional, cell-based; settings: IGROV-1, 1 h
HT-29 [6] = test: Cytotoxicity against human mitoxantrone-resistant HT29 cells after 1 hr; format: functional, cell-based; settings: HT-29, 1 h

Row | SMILES | IC50 (IGROV-1 [1]) [µM] | IC50 (NCI-H460 [2]) [µM] | IC50 (NCI-H460 [3]) [µM] | Activity (Homo sapiens) | IC50 (HT-29 [4]) [µM] | IC50 (IGROV-1 [5]) [µM] | IC50 (HT-29 [6]) [µM]
1 | CC[C@@]1(O)C(=O)OCc2c1cc1n(c2=S)Cc2cc3ccccc3nc2-1 | 0.00467 | 0.14 | 0.0074 | Active | 0.17 | 0.22 | 0.11
2 | CC[C@@]1(O)C(=O)OCc2c1cc1n(c2=O)Cc2cc3ccccc3nc2-1 [CAMPTOTHECIN] | 0.012 |  | 0.0062 |  |  | 1.65 | 

— ChEMBL document CHEMBL1150278, “Thiocamptothecin” (J Med Chem, 2008)
